ChEMBL document CHEMBL1240388, “Single nucleotide polymorphism analysis of the major tripartite multidrug efflux pump of Escherichia coli: functional conservation in disparate animal reservoirs despite exposure to antimicrobial chemotherapy” (2010)
In brackets after ≈: the same amount, converted by molar mass.

Key:
Escherichia coli [1] = assay: Antibacterial activity against Escherichia coli AG102MB harboring pS1328-based acrB gene; assay type: functional
Escherichia coli [2] = assay: Antibacterial activity against Escherichia coli AG102MB harboring pP10-based acrB gene; assay type: functional
Escherichia coli [3] = assay: Antibacterial activity against Escherichia coli AG102MB harboring naive acrB gene; assay type: functional
Escherichia coli [4] = assay: Antibacterial activity against Escherichia coli AG102MB harboring pSportI cloning vector
Escherichia coli [5] = assay: Antibacterial activity against Escherichia coli AG102MB; assay type: functional

SMILES | MIC (Escherichia coli [1]) [µg/mL] | MIC (Escherichia coli [2]) [µg/mL] | MIC (Escherichia coli [3]) [µg/mL] | MIC (Escherichia coli [4]) [µg/mL] | MIC (Escherichia coli [5]) [µg/mL]
CC[C@H]1OC(=O)C[C@@H](O)[C@H](C)[C@@H](O[C@@H]2O[C@H](C)[C@@H](O[C@H]3C[C@@](C)(O)[C@@H](O)[C@H](C)O3)[C@H](N(C)C)[C@H]2O)[C@@H](CC=O)C[C@@H](C)C(=O)/C=C/C(C)=C/[C@@H]1CO[C@@H]1O[C@H](C)[C@@H](O)[C@@H](OC)[C@H]1OC [TYLOSIN] | > 1020 | 1020 (≈ 1120 µM) | 1020 (≈ 1120 µM) | 16 (≈ 17.5 µM) | 128 (≈ 140 µM)
CC(=O)O[C@H]1C[C@@]2(C)[C@@H](C[C@@H](O)[C@H]3[C@@]4(C)CC[C@@H](O)[C@@H](C)[C@@H]4CC[C@@]32C)/C1=C(\CCC=C(C)C)C(=O)O [FUSIDIC ACID] | > 512 | > 512 | > 512 | 8 (≈ 15.5 µM) | 16 (≈ 31 µM)
CO[C@@H]1[C@@H](OC(N)=O)[C@@H](O)[C@H](Oc2ccc3c(O)c(NC(=O)c4ccc(O)c(CC=C(C)C)c4)c(=O)oc3c2C)OC1(C)C [NOVOBIOCIN] | 512 (≈ 836 µM) | 512 (≈ 836 µM) | 512 (≈ 836 µM) | 8 (≈ 13.1 µM) | 4 (≈ 6.53 µM)
O=C(O)c1cn(C2CC2)c2cc(N3CCNCC3)c(F)cc2c1=O [CIPROFLOXACIN] |  |  |  |  | 0.063 (≈ 0.19 µM)
CN(C)[C@@H]1C(O)=C(C(N)=O)C(=O)[C@@]2(O)C(O)=C3C(=O)c4c(O)cccc4[C@@](C)(O)[C@H]3C[C@@H]12 [TETRACYCLINE] | 16 (≈ 36 µM) | 8 (≈ 18 µM) | 8 (≈ 18 µM) | 1 (≈ 2.25 µM) | 1 (≈ 2.25 µM)
CC[n+]1c(-c2ccccc2)c2cc(N)ccc2c2ccc(N)cc21.[Br-] [HOMIDIUM BROMIDE] | 64 | 64 | 128 | 2 | 4
CN(C)c1ccc(C(=C2C=CC(=[N+](C)C)C=C2)c2ccc(N(C)C)cc2)cc1.[Cl-] [GENTIAN VIOLET] | 4 | 4 | 4 | 0.5 | 0.5
CO[C@H]1C[C@H](O[C@H]2[C@H](C)[C@@H](O[C@@H]3O[C@H](C)C[C@H](N(C)C)[C@H]3O)[C@@H](C)C[C@@]3(CO3)C(=O)[C@H](C)[C@@H](O)[C@@H](C)[C@@H](C)OC(=O)[C@@H]2C)O[C@@H](C)[C@@H]1O [OLEANDOMYCIN] | > 1020 | > 1020 | > 1020 | 64 (≈ 93 µM) | 256 (≈ 372 µM)
NC[C@H]1O[C@H](O[C@H]2[C@H](O)[C@@H](O[C@H]3O[C@H](CO)[C@@H](O)[C@H](N)[C@H]3O)[C@H](N)C[C@@H]2N)[C@H](O)[C@@H](O)[C@@H]1O [KANAMYCIN] |  |  |  |  | > 1020
C[C@H](CCC(=O)O)[C@H]1CC[C@H]2[C@@H]3[C@H](O)C[C@@H]4C[C@H](O)CC[C@]4(C)[C@H]3C[C@H](O)[C@]12C [CHOLIC ACID] | 16 (≈ 39.2 µM) | 8 (≈ 19.6 µM) | 8 (≈ 19.6 µM) | 4 (≈ 9.79 µM) | 4 (≈ 9.79 µM)
CC1(C)S[C@@H]2[C@H](NC(=O)[C@H](N)c3ccccc3)C(=O)N2[C@H]1C(=O)O [AMPICILLIN] | > 1020 | > 1020 | > 1020 | > 1020 | 16 (≈ 45.8 µM)
O=C(N[C@H](CO)[C@H](O)c1ccc([N+](=O)[O-])cc1)C(Cl)Cl [CHLORAMPHENICOL] |  | 32 (≈ 99 µM) |  | 4 (≈ 12.4 µM) | 2 (≈ 6.19 µM)
CC[C@H]1OC(=O)[C@H](C)[C@@H](O[C@H]2C[C@@](C)(OC)[C@@H](O)[C@H](C)O2)[C@H](C)[C@@H](O[C@@H]2O[C@H](C)C[C@H](N(C)C)[C@H]2O)[C@](C)(O)C[C@@H](C)C(=O)[C@H](C)[C@@H](O)[C@]1(C)O [ERYTHROMYCIN] | 512 (≈ 698 µM) | 128 (≈ 174 µM) | 128 (≈ 174 µM) | 8 (≈ 10.9 µM) | 4 (≈ 5.45 µM)
